Patent US9079859B2, “Synthetic lethal targeting of glucose transport” (AUCKLAND UNISERVICES LIMITED, priority 2011, dated 2015)

Assays:
RCC4 = experiment: RCC panel sensitivity (Table 2); assay type: cell-based; details: RCC4, VHL mutant
RCC4/VHL cells = experiment: Glucose uptake (2-deoxy-D-[3H]glucose), RCC4/VHL; assay type: cell-based
Protocol: Glucose Uptake. One hundred thousand cells were plated per well in a six-well plate. The next day, cells were treated with the indicated concentration of drug and incubated for the indicated time. Cells were then washed twice with phosphate-buffered saline, incubated in low-glucose medium for 30 minutes, and 3H-2-deoxyglucose (0.5 μCi) was added in 1 ml of glucose-free media for an additional hour. Cells were washed twice in PBS and lysed (0.2 N NaOH and 0.2% sodium dodecyl sulfate). Glucose uptake was quantified with a scintillation counter.

DAPK1 = biological target: T1, DAPK1 (Homo sapiens, UniProt P53355); experiment: Kinase Profiler; assay type: biochemical; details: STF-31 10 μM
T1 construct: purchased Millipore (Kinase Profiler service)
T1 sequence (P53355 whole entry, species assumed): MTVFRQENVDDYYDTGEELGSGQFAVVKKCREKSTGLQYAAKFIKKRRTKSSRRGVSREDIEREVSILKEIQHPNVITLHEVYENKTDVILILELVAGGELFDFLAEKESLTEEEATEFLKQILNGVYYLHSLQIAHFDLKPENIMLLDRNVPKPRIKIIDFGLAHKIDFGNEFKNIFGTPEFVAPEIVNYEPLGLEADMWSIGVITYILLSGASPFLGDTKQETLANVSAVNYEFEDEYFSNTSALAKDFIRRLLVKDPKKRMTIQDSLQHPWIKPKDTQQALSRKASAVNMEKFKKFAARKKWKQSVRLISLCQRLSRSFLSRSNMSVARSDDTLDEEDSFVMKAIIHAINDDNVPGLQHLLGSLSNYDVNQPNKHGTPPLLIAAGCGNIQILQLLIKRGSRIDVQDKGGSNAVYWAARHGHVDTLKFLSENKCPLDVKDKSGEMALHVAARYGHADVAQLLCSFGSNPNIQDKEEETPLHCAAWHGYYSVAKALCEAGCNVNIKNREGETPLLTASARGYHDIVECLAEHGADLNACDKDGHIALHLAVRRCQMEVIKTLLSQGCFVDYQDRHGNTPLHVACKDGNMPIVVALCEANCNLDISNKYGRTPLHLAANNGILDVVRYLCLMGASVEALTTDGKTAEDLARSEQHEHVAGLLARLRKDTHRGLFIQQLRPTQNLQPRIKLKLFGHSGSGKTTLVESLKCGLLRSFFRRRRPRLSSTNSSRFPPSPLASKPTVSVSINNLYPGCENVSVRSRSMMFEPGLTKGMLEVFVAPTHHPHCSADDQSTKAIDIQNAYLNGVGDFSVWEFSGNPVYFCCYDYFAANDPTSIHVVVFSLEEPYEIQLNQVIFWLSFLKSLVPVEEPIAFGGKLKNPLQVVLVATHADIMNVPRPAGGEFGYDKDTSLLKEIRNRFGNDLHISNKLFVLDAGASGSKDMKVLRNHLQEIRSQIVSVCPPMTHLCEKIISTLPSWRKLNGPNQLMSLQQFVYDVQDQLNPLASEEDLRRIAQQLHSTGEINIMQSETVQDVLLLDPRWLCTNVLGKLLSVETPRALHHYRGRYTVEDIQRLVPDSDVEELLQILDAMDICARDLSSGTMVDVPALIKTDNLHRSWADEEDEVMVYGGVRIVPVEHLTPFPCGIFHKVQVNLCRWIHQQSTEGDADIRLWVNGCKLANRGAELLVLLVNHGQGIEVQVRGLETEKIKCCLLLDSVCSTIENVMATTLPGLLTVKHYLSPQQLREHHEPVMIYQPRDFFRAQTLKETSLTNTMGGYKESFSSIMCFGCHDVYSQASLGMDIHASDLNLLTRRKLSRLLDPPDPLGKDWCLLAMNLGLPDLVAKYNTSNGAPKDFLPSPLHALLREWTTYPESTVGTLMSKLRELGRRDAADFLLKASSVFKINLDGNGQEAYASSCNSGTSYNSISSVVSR
Protocol: (§1) Cell Culture and Reagents. All cells were grown in DMEM+10% FCS. ACHN and ACHN shVHL were a kind gift from George V. Thomas (UCLA). HIF overexpressing clones were described previously (Sutphin et al., Cancer Res, 67:5896-5905 (2007)). Transfection of RNA oligos were performed with DnarmaFECT Reagent 1 (Dharmcon), according to manufacturer's directions. ON-TARGETplus SMART pools against HIF-1 R/ARNT were purchased from Dharmacon. Inducible shRNAmir to GLUT1 was purchased from Open Biosystems. GLUT1 was detected with anti-GLUT1 antibody from NeoMarkers/LabVision/Fisher. For immunofluorescent studies, GLUT1, GLUT2, and GLUT3 antibodies were purchased from R&D. Pyruvate/lactate levels and hexokinase activity were both measured by fluorometric assay (BioVision and Sigma-Aldrich, respectively). ATP levels were measured by bioluminescence assay (ATP Determination Kit from Molecular Probes/Invitrogen). In vitro kinase activities were performed by Millipore Kinase Profiler.

GSK3α = biological target: T2, GSK3α (Homo sapiens, UniProt P49840); experiment: Kinase Profiler; assay type: biochemical; details: STF-31 10 μM
T2 construct: purchased Millipore Kinase Profiler
Protocol: as §1

MLK1 = biological target: T3, MLK1 (Homo sapiens, UniProt P80192); experiment: Kinase Profiler; assay type: biochemical; details: STF-31 10 μM
T3 construct: purchased Millipore Kinase Profiler
Protocol: as §1

IGF-1R = biological target: T4, IGF-1R (Homo sapiens, UniProt P08069); experiment: Kinase Profiler; assay type: biochemical; details: STF-31 10 μM
T4 construct: purchased Millipore Kinase Profiler
Protocol: as §1

IR = biological target: T5, IR (Homo sapiens, UniProt P06213); experiment: Kinase Profiler; assay type: biochemical; details: STF-31 10 μM
T5 construct: purchased Millipore Kinase Profiler
T5 sequence (P06213 28-1382): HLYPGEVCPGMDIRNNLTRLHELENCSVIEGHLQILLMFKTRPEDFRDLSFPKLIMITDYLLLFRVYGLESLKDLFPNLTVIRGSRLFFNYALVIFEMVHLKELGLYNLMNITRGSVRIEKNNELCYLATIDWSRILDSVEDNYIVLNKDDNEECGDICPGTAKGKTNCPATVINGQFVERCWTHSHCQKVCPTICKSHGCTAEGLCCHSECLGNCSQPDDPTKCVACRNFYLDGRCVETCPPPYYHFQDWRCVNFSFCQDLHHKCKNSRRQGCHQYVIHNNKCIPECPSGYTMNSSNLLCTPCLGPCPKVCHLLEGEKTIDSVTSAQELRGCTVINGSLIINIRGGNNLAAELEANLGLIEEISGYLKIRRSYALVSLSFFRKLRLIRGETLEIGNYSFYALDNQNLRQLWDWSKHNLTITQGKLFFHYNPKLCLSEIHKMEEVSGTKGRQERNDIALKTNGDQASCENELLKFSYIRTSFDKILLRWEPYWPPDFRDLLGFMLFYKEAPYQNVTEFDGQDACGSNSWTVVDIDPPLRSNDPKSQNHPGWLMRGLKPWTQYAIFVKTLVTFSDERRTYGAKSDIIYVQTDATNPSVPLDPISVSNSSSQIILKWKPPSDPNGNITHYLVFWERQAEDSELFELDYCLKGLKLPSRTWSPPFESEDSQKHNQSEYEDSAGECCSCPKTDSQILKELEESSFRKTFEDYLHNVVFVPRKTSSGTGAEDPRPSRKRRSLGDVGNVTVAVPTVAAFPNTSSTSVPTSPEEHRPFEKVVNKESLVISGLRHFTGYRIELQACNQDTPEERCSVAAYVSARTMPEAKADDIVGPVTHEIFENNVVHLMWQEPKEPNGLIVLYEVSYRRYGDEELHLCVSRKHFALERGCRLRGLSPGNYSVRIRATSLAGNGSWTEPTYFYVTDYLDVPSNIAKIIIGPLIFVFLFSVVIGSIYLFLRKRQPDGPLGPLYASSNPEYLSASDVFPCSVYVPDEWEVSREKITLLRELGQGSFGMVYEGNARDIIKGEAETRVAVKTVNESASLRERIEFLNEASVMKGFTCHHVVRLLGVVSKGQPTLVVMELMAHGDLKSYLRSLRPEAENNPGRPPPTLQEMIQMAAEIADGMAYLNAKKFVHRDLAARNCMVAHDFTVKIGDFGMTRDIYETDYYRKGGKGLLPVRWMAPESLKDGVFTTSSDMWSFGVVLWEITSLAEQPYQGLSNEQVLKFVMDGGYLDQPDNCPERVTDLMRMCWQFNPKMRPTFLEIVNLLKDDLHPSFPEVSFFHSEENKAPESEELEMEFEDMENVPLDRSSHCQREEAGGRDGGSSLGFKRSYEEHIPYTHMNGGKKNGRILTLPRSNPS
Protocol: as §1

Hck = biological target: T6, Hck (Homo sapiens, UniProt P08631); experiment: Kinase Profiler; assay type: biochemical; details: STF-31 10 μM
T6 construct: purchased Millipore Kinase Profiler
T6 sequence (P08631 whole entry, species assumed): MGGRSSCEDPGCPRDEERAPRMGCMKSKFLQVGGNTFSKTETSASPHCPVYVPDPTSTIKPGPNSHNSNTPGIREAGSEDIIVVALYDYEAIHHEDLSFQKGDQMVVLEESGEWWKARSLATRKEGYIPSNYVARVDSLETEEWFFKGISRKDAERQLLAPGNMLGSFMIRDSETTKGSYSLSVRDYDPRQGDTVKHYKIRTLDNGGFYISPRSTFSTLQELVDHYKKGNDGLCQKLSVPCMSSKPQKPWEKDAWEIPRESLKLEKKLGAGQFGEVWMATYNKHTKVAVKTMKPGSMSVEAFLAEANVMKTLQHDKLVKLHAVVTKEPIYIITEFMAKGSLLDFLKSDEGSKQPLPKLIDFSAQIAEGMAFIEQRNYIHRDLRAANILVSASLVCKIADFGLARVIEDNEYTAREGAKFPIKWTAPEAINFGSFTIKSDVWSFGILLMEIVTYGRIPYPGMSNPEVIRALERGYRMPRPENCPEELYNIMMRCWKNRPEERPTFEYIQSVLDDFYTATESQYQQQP
Protocol: as §1

MKK4 = biological target: T7, MKK4 (Mus musculus, UniProt P47809); experiment: Kinase Profiler; assay type: biochemical; details: STF-31 10 μM
T7 construct: purchased Millipore Kinase Profiler
Protocol: as §1

Syk = biological target: T8, Syk (Homo sapiens, UniProt P43405); experiment: Kinase Profiler; assay type: biochemical; details: STF-31 10 μM
T8 construct: purchased Millipore (Kinase Profiler service)
Protocol: as §1

AMPK = experiment: Kinase Profiler; assay type: biochemical; details: STF-31 10 μM
Protocol: as §1

PKCδ = biological target: T9, PKCδ (Homo sapiens, UniProt Q05655); experiment: Kinase Profiler; assay type: biochemical; details: STF-31 10 μM
T9 construct: purchased Millipore (Kinase Profiler service)
T9 sequence (Q05655 whole entry): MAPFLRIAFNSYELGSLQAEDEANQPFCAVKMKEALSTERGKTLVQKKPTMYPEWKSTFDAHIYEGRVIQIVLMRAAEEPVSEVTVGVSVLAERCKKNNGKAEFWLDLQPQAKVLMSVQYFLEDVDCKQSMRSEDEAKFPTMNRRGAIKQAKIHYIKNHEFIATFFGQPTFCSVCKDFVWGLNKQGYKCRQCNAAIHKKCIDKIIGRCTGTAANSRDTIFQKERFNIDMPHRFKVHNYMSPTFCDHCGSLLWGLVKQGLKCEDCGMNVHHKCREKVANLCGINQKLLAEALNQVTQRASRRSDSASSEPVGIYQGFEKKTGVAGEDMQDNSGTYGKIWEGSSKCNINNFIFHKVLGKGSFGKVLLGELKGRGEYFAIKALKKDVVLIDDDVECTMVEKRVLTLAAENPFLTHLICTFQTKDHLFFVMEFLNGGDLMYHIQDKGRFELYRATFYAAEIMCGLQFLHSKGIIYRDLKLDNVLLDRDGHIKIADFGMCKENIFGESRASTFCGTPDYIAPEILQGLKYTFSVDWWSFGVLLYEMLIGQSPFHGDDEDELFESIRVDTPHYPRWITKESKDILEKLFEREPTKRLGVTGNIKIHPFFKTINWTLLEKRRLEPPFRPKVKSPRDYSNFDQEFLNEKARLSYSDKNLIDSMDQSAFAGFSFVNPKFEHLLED
Protocol: as §1

cKit(D816H) = biological target: T10, cKit(D816H) (Homo sapiens, UniProt P10721, D816H); experiment: Kinase Profiler; assay type: biochemical; details: STF-31 10 μM
T10 construct: purchased Millipore (Kinase Profiler service)
T10 sequence (P10721 26-976 D816H): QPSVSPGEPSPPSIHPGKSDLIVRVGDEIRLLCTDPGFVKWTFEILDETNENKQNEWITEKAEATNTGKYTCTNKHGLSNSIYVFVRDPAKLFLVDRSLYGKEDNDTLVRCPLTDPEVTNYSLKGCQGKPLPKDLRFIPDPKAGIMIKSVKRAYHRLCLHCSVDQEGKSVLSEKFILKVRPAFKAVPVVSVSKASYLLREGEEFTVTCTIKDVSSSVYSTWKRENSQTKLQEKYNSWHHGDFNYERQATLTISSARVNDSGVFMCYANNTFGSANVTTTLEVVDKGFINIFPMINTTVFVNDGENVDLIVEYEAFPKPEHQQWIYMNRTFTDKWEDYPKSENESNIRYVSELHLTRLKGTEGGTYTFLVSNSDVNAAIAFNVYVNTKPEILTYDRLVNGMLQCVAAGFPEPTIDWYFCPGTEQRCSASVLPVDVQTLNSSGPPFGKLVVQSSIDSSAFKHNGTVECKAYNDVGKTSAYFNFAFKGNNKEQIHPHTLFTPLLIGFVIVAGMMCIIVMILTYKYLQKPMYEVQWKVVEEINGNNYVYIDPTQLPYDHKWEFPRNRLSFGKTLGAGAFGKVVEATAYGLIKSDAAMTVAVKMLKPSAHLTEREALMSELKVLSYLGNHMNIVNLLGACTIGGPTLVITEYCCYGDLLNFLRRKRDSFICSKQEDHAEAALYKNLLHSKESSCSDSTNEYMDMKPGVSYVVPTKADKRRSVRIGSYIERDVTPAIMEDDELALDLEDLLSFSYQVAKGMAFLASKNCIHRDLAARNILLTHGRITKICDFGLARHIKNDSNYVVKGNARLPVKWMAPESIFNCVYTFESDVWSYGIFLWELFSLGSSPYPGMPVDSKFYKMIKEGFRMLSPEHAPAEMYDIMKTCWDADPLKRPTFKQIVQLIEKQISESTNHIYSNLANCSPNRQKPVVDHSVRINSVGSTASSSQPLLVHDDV
Protocol: as §1

ACHN shVHL = experiment: RCC panel sensitivity (Table 2); assay type: cell-based; details: VHL silenced

## CC(C)(C)c1ccc(S(=O)(=O)NCc2ccc(C(=O)Nc3cccnc3)cc2)cc1 [STF-31]
RCC4
  3-series sensitivity (sensitivity to STF-31): Yes
RCC4/VHL cells; 2-deoxy-D-[3H]glucose
  glucose uptake in RCC4/VHL cells: unaffected
RCC4/VHL cells; increasing concentrations of STF-31
  glucose uptake in RCC4/VHL cells versus concentration: relatively stable
DAPK1
  Kinase response to STF-31: 92
GSK3α
  Kinase response to STF-31: 134
MLK1
  Kinase response to STF-31: 97
IGF-1R
  Kinase response to STF-31: 108
IR
  Kinase response to STF-31: 121
Hck
  Kinase response to STF-31: 84
MKK4
  Kinase response to STF-31: 128
Syk
  Kinase response to STF-31: 94
AMPK
  Kinase response to STF-31: 92
PKCδ
  Kinase response to STF-31: 116
cKit(D816H)
  Kinase response to STF-31: 99
ACHN shVHL
  3-series sensitivity (sensitivity to STF-31): Yes
